{"source": "PubChem BioAssay (NCI)", "tested_on": "MDA-MB-468 breast", "assay": "NCI tumour cell line growth inhibition, 48 h", "note": "“And” between values parts separate entries of the source, which are not always exact repeats. Identical values can stand only once.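 Cultured in 96-well plates, cells were exposed to test compound for 48 hours across five concentrations. Abbreviation: GI50, concentration required for 50% inhibition of growth. TGI: total growth inhibition.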", "data": [{"smiles": "c1ccc2cc(-c3n(Cc4ccc5ccccc5n4)c4ccccc4[n+]3Cc3ccc4ccccc4n3)ccc2c1", "values": [{"measurement": "GI50", "result": 0.116, "unit": "µM"}, {"measurement": "TGI", "result": 0.529, "unit": "µM"}]}, {"smiles": "C=CCN1CC(=O)N2[C@@H](Cc3ccc(O)cc3F)C(=O)N(Cc3cccc(N4CC(N5CCN(CC)CC5)C4)n3)C[C@@H]2N1C(=O)NCc1ccccc1", "values": [{"measurement": "GI50", "result": 0.232, "unit": "µM"}, {"measurement": "TGI", "result": "> 100", "unit": "µM"}]}, {"smiles": "COC(=O)c1cncc(/C=C/c2c(C)cc(O)cc2C)c1", "values": [{"measurement": "GI50", "result": 4.32, "unit": "µM"}, {"measurement": "TGI", "result": 12.6, "unit": "µM"}]}, {"smiles": "COc1ccc(/C=C(\\C#N)n2nnc3c(F)cccc32)cc1", "values": [{"measurement": "GI50", "result": 1.58, "unit": "µM"}, {"measurement": "TGI", "result": 6.67, "unit": "µM"}]}, {"smiles": "O=C(CC1(O)C(=O)N(Cc2ccccc2)c2ccccc21)c1ccc(C(=O)NCC2CCC3(CC2)OOC2(CCCCC2)OO3)cc1", "note": "(configuration not stated)", "values": [{"measurement": "GI50", "result": 1.49, "unit": "µM"}, {"measurement": "TGI", "result": 3.31, "unit": "µM"}]}, {"smiles": "C[C@]12CC[C@@H]3c4cc(OC(F)F)c(OS(N)(=O)=O)cc4CC[C@H]3[C@@H]1CC[C@@H]2O", "values": [{"measurement": "GI50", "result": 0.244, "unit": "µM"}, {"measurement": "TGI", "result": 1.42, "unit": "µM"}]}, {"smiles": "COc1ccc(N(CC(=O)NCCC[Te]c2ccccc2)C(=O)CNC(=O)OC(C)(C)C)cc1", "values": [{"measurement": "GI50", "result": 3.2, "unit": "µM"}, {"measurement": "TGI", "result": 10.9, "unit": "µM"}]}, {"smiles": "Cc1cc(N(CCCNc2ccnc3cc(Cl)ccc23)Cc2ccco2)nc(N2CCN(C)CC2)n1", "values": [{"measurement": "GI50", "result": 1.81, "unit": "µM"}, {"measurement": "TGI", "result": 4.32, "unit": "µM"}]}, {"smiles": "CCCCCO/N=C\\c1c2c(O)c3c(O)c(C)c4c(c3c1O)C(=O)C(C)(O/C=C\\C(OC)C(C)C(OC(C)=O)C(C)C(O)C(C)C(O)C(C)/C=C\\C=C(\\C)C(=O)N2)O4", "note": "(configuration not stated)", "values": [{"measurement": "GI50", "result": 2.17, "unit": "µM"}, {"measurement": "TGI", "result": 6.33, "unit": "µM"}]}, {"smiles": "COC1=C(OC)C(=O)C(SC/C=C(\\C)CCCC(C)CCCC(C)CCCC(C)C)=CC1=O", "note": "(configuration not stated)", "values": [{"measurement": "GI50", "result": 3.33, "unit": "µM"}, {"measurement": "TGI", "result": "> 100", "unit": "µM"}]}, {"smiles": "O=C1OC(C(O)CO)C(O)=C1O", "note": "(configuration not stated)", "values": [{"measurement": "GI50", "result": "1820 µM and 2020 µM"}, {"measurement": "TGI", "result": "3760 µM and 4400 µM"}]}, {"smiles": "O=C(CCCCCCN1CC(=O)N2[C@@H](c3ccc(Cl)c(Cl)c3)c3[nH]c4ccccc4c3C[C@H]2C1=O)NO", "values": [{"measurement": "GI50", "result": 1.89, "unit": "µM"}, {"measurement": "TGI", "result": 7.42, "unit": "µM"}]}, {"smiles": "CC1OC(OC2C(O)CC(OC3C(O)CC(OC4CCC5(C)C(CCC6C5CC(O)C5(C)C(C7=CC(=O)OC7)CCC65O)C4)OC3C)OC2C)CC(O)C1O", "note": "(configuration not stated)", "values": [{"measurement": "GI50", "result": 0.159, "unit": "µM"}, {"measurement": "TGI", "result": 0.364, "unit": "µM"}]}, {"smiles": "CCN(CC)CCCCCCNc1cc(OC)cc2cccnc12", "values": [{"measurement": "GI50", "result": 1.93, "unit": "µM"}, {"measurement": "TGI", "result": 3.8, "unit": "µM"}]}, {"smiles": "CC1=C(CC(=O)c2cccc([N+](=O)[O-])c2)C(=O)c2ccccc2C1=O", "values": [{"measurement": "GI50", "result": 1.77, "unit": "µM"}, {"measurement": "TGI", "result": 5.9, "unit": "µM"}]}, {"smiles": "N#CCCN1C/C(=C/c2ccc(Cl)cc2)C(=O)/C(=C/c2ccc(Cl)cc2)C1", "values": [{"measurement": "GI50", "result": 1, "unit": "µM"}, {"measurement": "TGI", "result": 2.89, "unit": "µM"}]}, {"smiles": "CC(C)(O)CNc1nc(Nc2ccnc(C(F)(F)F)c2)nc(-c2cccc(C(F)(F)F)n2)n1", "values": [{"measurement": "GI50", "result": 18, "unit": "µM"}, {"measurement": "TGI", "result": 38.5, "unit": "µM"}]}, {"smiles": "C#CCNC(=O)[C@H](CC)[C@H]1CC[C@H](C)[C@H]([C@@H](C)[C@H](O)[C@H](C)C(=O)[C@H](CC)C2O[C@]3(C=CC(=O)[C@]4(CC[C@@](C)([C@H]5CC[C@](O)(CC)[C@H](C)O5)O4)O3)[C@H](C)C[C@@H]2C)O1", "note": "(some centres not stated)", "values": [{"measurement": "GI50", "result": 2.51, "unit": "µM"}, {"measurement": "TGI", "result": 21.5, "unit": "µM"}]}, {"smiles": "CC(=O)NCc1cccc(C#Cc2cncnc2Nc2ccc(OCc3cccc(F)c3)c(Cl)c2)c1", "values": [{"measurement": "GI50", "result": 1.29, "unit": "µM"}, {"measurement": "TGI", "result": 6.29, "unit": "µM"}]}, {"smiles": "CCCCCCNC(=O)Oc1ccc(/C(=C(\\C)c2ccc(Cl)cc2)c2ccc(OCCN3CCCCC3)cc2)cc1", "values": [{"measurement": "GI50", "result": 3.46, "unit": "µM"}, {"measurement": "TGI", "result": 8.7, "unit": "µM"}]}, {"smiles": "COc1cc2c(cc1OCCCCN1CCN(C(=S)SCCC(C#N)(c3ccccc3)c3ccccc3)CC1)N=C[C@@H]1CCCN1C2=O", "values": [{"measurement": "GI50", "result": 0.499, "unit": "µM"}, {"measurement": "TGI", "result": 31.4, "unit": "µM"}]}, {"smiles": "Oc1ccc(C(c2ccc(O)cc2)c2ccc(Br)cn2)cc1", "values": [{"measurement": "GI50", "result": 0.234, "unit": "µM"}, {"measurement": "TGI", "result": 0.637, "unit": "µM"}]}, {"smiles": "O=C(/C=C/c1cccc(O)c1)c1cccc(-n2cc(-c3ccccc3)[nH]c2=O)c1", "values": [{"measurement": "GI50", "result": 2.46, "unit": "µM"}, {"measurement": "TGI", "result": 7.7, "unit": "µM"}]}, {"smiles": "Oc1cccc2ccc(N/N=C/c3cc(CN4CCOCC4)c(O)c4ncccc34)nc12", "values": [{"measurement": "GI50", "result": 0.0302, "unit": "µM"}, {"measurement": "TGI", "result": 0.289, "unit": "µM"}]}, {"smiles": "c1ccc2c(c1)Nc1ccncc1S2", "values": [{"measurement": "GI50", "result": 18.9, "unit": "µM"}, {"measurement": "TGI", "result": 50.8, "unit": "µM"}]}, {"smiles": "CN(CCNCc1ccccn1)CCNCc1ccccn1", "values": [{"measurement": "GI50", "result": 2.71, "unit": "µM"}, {"measurement": "TGI", "result": 7.93, "unit": "µM"}]}, {"smiles": "Oc1c(I)cc(I)c2cccnc12", "values": [{"measurement": "GI50", "result": 7.01, "unit": "µM"}, {"measurement": "TGI", "result": 30.3, "unit": "µM"}]}, {"smiles": "COc1ccc(C(=O)c2c(N)c(C#N)cn2-c2cccc(OC)c2)cc1", "values": [{"measurement": "GI50", "result": 1.12, "unit": "µM"}, {"measurement": "TGI", "result": 4.23, "unit": "µM"}]}, {"smiles": "O=C(Nc1cccc(-n2cc(-c3ccncc3)c(-c3cc(O)cc(Cl)c3)n2)c1)c1cc(C(F)(F)F)cc(C(F)(F)F)c1", "values": [{"measurement": "GI50", "result": 3.1, "unit": "µM"}, {"measurement": "TGI", "result": "> 100", "unit": "µM"}]}, {"smiles": "O=[N+]([O-])c1ccc(N2CCOCC2)c2c1no[n+]2[O-]", "values": [{"measurement": "GI50", "result": 0.769, "unit": "µM"}, {"measurement": "TGI", "result": 2.83, "unit": "µM"}]}, {"smiles": "C(=N/N(Cc1ccccc1)Cc1ccccc1)/c1ccccc1", "values": [{"measurement": "GI50", "result": "> 100", "unit": "µM"}, {"measurement": "TGI", "result": "> 100", "unit": "µM"}]}, {"smiles": "O=C(N/N=C/c1ccco1)c1[nH]c2ccc(Br)cc2c1-c1ccccc1", "values": [{"measurement": "GI50", "result": 0.22, "unit": "µM"}, {"measurement": "TGI", "result": 2.4, "unit": "µM"}]}, {"smiles": "Cc1cc(C#Cc2ccc(C(C)(C)C)cc2)ccc1-n1c(/C=C/c2ccc(O)cc2O)nc2ccccc2c1=O", "values": [{"measurement": "GI50", "result": 2.2, "unit": "µM"}, {"measurement": "TGI", "result": 6.5, "unit": "µM"}]}, {"smiles": "Cc1cccc2c3c(sc12)C(c1ccc(Cl)cc1)C(C#N)=C(N)O3", "note": "(configuration not stated)", "values": [{"measurement": "GI50", "result": 0.277, "unit": "µM"}, {"measurement": "TGI", "result": 3.75, "unit": "µM"}]}, {"smiles": "CSc1nc2sc3c(c2c(=O)n1-c1ccc(C(C)C)cc1)CCC(=O)C3", "values": [{"measurement": "GI50", "result": 2.16, "unit": "µM"}, {"measurement": "TGI", "result": 5.99, "unit": "µM"}]}, {"smiles": "NS(=O)(=O)c1ccc(-c2cc3ccncc3cc2OCc2ccccc2)cc1", "values": [{"measurement": "GI50", "result": 13.4, "unit": "µM"}, {"measurement": "TGI", "result": "> 25", "unit": "µM"}]}, {"smiles": "Nc1nc(Nc2ccccc2SSc2ccccc2Nc2nc(N)nc(C(Cl)(Cl)Cl)n2)nc(C(Cl)(Cl)Cl)n1", "values": [{"measurement": "GI50", "result": 4.7, "unit": "µM"}, {"measurement": "TGI", "result": 29.1, "unit": "µM"}]}, {"smiles": "Cn1cc(C2=C(c3cccc(OC[C@@H](O)CO)c3)C(=O)NC2=O)c2ccccc21", "values": [{"measurement": "GI50", "result": "> 25", "unit": "µM"}, {"measurement": "TGI", "result": "> 25", "unit": "µM"}]}, {"smiles": "CCc1cccc(C)c1NC(=O)c1sc2nc3c(cc2c1N)C(=O)CCC3", "values": [{"measurement": "GI50", "result": 0.377, "unit": "µM"}, {"measurement": "TGI", "result": 60.5, "unit": "µM"}]}, {"smiles": "C/C(=C\\c1cnc(C)s1)[C@@H]1C[C@@H]2O[C@@H]2CCC[C@H](C)[C@H](O)[C@@H](C)C(=O)C(C)(C)[C@@H](O)CC(=O)O1", "values": [{"measurement": "GI50", "result": "< 0.01", "unit": "µM"}, {"measurement": "TGI", "result": 1.81, "unit": "µM"}]}, {"smiles": "COc1ccc(-c2nc(/C=C3\\SC(=NCc4ccccc4)NC3=O)c3ccccn23)cc1", "values": [{"measurement": "GI50", "result": 1.9, "unit": "µM"}, {"measurement": "TGI", "result": 4.39, "unit": "µM"}]}, {"smiles": "COC(=O)[C@H]1CCCN1C(=O)[C@H]1CCCN1C(=O)[C@@H](Cc1c[nH]c2ccccc12)NC(=S)Nc1cc(C(F)(F)F)cc(C(F)(F)F)c1", "values": [{"measurement": "GI50", "result": 2.26, "unit": "µM"}, {"measurement": "TGI", "result": 5.9, "unit": "µM"}]}, {"smiles": "COc1cc(/C=C/C(=O)c2cccc(-n3cc(-c4ccc(Cl)cc4)[nH]c3=O)c2)cc(OC)c1OC", "values": [{"measurement": "GI50", "result": 12.8, "unit": "µM"}, {"measurement": "TGI", "result": 34.7, "unit": "µM"}]}, {"smiles": "Cc1ccc(-c2nc([P+](c3ccccc3)(c3ccccc3)c3ccccc3)c(S(=O)(=O)c3ccc(C)cc3)o2)cc1", "values": [{"measurement": "GI50", "result": 1.03, "unit": "µM"}, {"measurement": "TGI", "result": 2.6, "unit": "µM"}]}, {"smiles": "COc1cc2nc(-c3cc(F)ccc3O)nc(N[C@@H]3CNC[C@H]3C(C)(C)O)c2cc1OC", "values": [{"measurement": "GI50", "result": 1.64, "unit": "µM"}, {"measurement": "TGI", "result": 3.12, "unit": "µM"}]}, {"smiles": "N#CC1=C(/N=C/c2ccccc2)Oc2c(ccc3ccccc23)C1c1ccccc1", "note": "(configuration not stated)", "values": [{"measurement": "GI50", "result": 0.247, "unit": "µM"}, {"measurement": "TGI", "result": 0.741, "unit": "µM"}]}]}
